Consider five compounds from patent US20040018983A1, “Antifungal compositions” (Achillion Pharmaceuticals, Inc., priority 2001, published 2004).

The subject of the test is C. albicans. Kind of test: Fungal susceptibility to zinc finger selective antifungals: broth microdilution growth inhibition (OD 405 nm), with and without a zinc finger blocking compound. It counts as cell-based, Candida albicans. Conditions: for MIC: Candida albicans, 48 h, read-out: C. albicans MIC; for Fold Increase: increase of MIC with blocking compound (cysteine or glutathione) over MIC alone; for C. albicans MIC + 200 μg/ml cysteine: with 200 μg/ml cysteine as zinc finger blocking compound; for C. albicans MIC + 200 μg/ml glutathione: with 200 μg/ml glutathione as zinc finger blocking compound; for blocking of antifungal action by glutathione and cysteine (zinc finger mechanism): discussion of Table 2. As for the experimental part: A panel of Candida clinical isolates (including azole-resistant species) plus single isolates of Aspergillus fumigates, were used to evaluate the activity of the test compounds in vitro. Inocula were prepared as broth cultures (yeasts) or as suspensions of fungal material made from agar slope cultures (molds). The test compounds were pipetted from DMSO stock solution into water to provide a series of […] dilutions. […] (other fungi). Growth in the microcultures was measured by its optical density (OD) measured at a wavelength of 405 nm. The OD for cultures with test compounds was calculated as a percentage of the control, drug-free OD. Inhibition of growth to 35% of control or less was recorded as significant inhibition (Table 2).
(In general: In broth dilution the organism is exposed to a series of concentrations in liquid medium.)

Where [1] appears, read: no blocking compound, CYG medium, 2 days at 37° C., inhibition of growth to 35% of control or less.

Each structure is given as a SMILES string. ≈ marks a conversion by molar mass, not a printed value. Read-outs that look alike come from different tables or passages of the source.

As to `O=Nc1ccc2oc(=O)ccc2c1` [Compound 2, 6-nitroso-1,3-benzopyrene], the “Fold Increase” value is on record as 4 Fold, the “C. albicans MIC + 200 μg/ml cysteine” value was determined as 16 µg/mL and the “C. albicans MIC + 200 μg/ml glutathione” value came to 16 µg/mL. In addition, the MIC under setting [1] is 4 µg/mL (≈ 22.8 µM).

In the case of `Cc1ccccc1N=O` [Compound 4, 2-nitrosotoluene], the “blocking of antifungal action by glutathione and cysteine (zinc finger mechanism)” value is on record as “not blocked by either glutathione or cysteine”; the “Fold Increase” value was 0 Fold; the “C. albicans MIC + 200 μg/ml cysteine” value stood at 16 µg/mL; the “C. albicans MIC + 200 μg/ml glutathione” value was determined as 16 µg/mL. Also, the MIC under setting [1] was found to be 16 µg/mL (≈ 132 µM).

Regarding `c1csc(SSc2cccs2)c1` [Compound 6, di(2-thienyl)disulphide], the “Fold Increase” value was found to be 2 Fold, the “C. albicans MIC + 200 μg/ml cysteine” value worked out at 16 µg/mL and the “C. albicans MIC + 200 μg/ml glutathione” value was 16 µg/mL. Besides, the MIC under setting [1] was 8 µg/mL (≈ 34.7 µM).

In the case of `CN(C)c1ccc(N=O)cc1` [Compound 9, 4-nitroso-N,N-dimethylaniline], the “blocking of antifungal action by glutathione and cysteine (zinc finger mechanism)” value was “blocked to a somewhat different extent by the two different blocking compounds, but in both cases the effect is significant”.

As to `O=Nc1ccc(Nc2ccccc2)cc1` [Compound 12, 4-nitrosodiohenylamine], the MIC is 2 µg/mL (≈ 10.1 µM), the “Fold Increase” value was determined as 8 Fold, the “C. albicans MIC + 200 μg/ml cysteine” value is 16 µg/mL and the “C. albicans MIC + 200 μg/ml glutathione” value stood at 16 µg/mL.

By MIC is commonly meant the least concentration at which growth counts as inhibited.
